Molecules are shown by their SMILES.

The subject of the assay is MC38 tumors. Nature of the assay: MC38 subcutaneous syngeneic tumor model in WT C57Bl/6J mice. Particulars: LTV1 6 mg/kg/dose, treatment analogous to L1.

Protocol: All mice husbandry, experiments, and euthanasia were performed in accordance with Johns Hopkins IACUC approved protocols. WT C57Bl/6J, Balb/cJ, and PTPN22 KO (B6.Cg-Ptpn22tm2Achn/J) mice were purchased from JAX and bred in-house. For syngeneic immunocompetent mouse models, aged-matched 8-12 week old female mice were injected with MC38 (2.5×10^5) or EG7 (2.5×10^5 for rejection and 5×10^5 for treatment) or CT26 (5×10^5) subcutaneously in the right hind limb. […] LTV1 was also dissolved in DMSO and diluted to the same final formulation for administration at 6 mg/kg/dose. Vehicle injections contained 10% DMSO and 5% cremophor-EL in PBS.

As to `Cc1ccccc1N1C(=O)/C(=C/c2ccc(OCc3cccc(C(=O)O)c3)cc2)C(=O)NC1=S` [LTV1], the “MC38 tumor growth compared to vehicle” value is listed as “moderately decreased tumor growth”.

Source of the values: US20220267274A1, “TARGETING PTPN22 IN CANCER THERAPY” (The Johns Hopkins University, priority 2019, published 2022).
